Consider two compounds from patent US9648872B2, “Water dispersible granule composition” (priority 2014, dated 2017).

Each structure is given as a SMILES string. Values after ≈ are worked out from the molar mass of the structure shown.

The conditions of data set [1]: cited from earlier work.
A short description of data set [2]: Solubility of active ingredient. It counts as physicochemical. From the text:
Formulations of water dispersible granules comprising microcapsules encapsulating active ingredients with higher water solubilities: • a. […] When attempting to prepare water dispersible granules comprising microcapsules of Thiamethoxam as per an embodiment of this invention, it was observed that Thiamethoxam was not soluble in the solvent C-9. It is observed that thiamethoxam decomposed immediately beyond its melting point. On attempting to add methylene diphenyl diisocyanate (MDI) in molten Thiamethoxam, it polymerized immediately due to high temperature. Thus Thiamethoxam could not be microencapsulated and it was not possible to prepare its water dispersible granular formulation. • b. […] A water dispersible granular composition comprising microcapsules of 25% Propoxur within a polyurea shell wall with Gohensol GL-03 was made, according to an embodiment of the invention, including maltodextrin as a water soluble suspension adjuvant in the filler base, along with clay, sodium lignosulfonate and alkyl naphthalene sulfonate (Supragil WP). The suspensibility observed was 85%. A water dispersible granule composition comprising microcapsules of 25% Propoxur was prepared with the microcapsules having a polyurea shell wall and polyvinyl alcohol Gohensol GL-03. […]

Turning to `CNC(=O)Oc1ccccc1OC(C)C` [Propoxur], the solubility in water in data set [1] is 1800 µg/mL (≈ 8.6 mM). Turning to `CN1COCN(Cc2cnc(Cl)s2)/C1=N\[N+](=O)[O-]` [Thiamethoxam], the “solubility in the solvent C-9” value in data set [2] was “not soluble”.
